Data from article PMC4399838, “Antipsychotic-Like Effect of the Muscarinic Acetylcholine Receptor Agonist BuTAC in Non-Human Primates” (PLoS ONE, 2015).
Where two headings read alike, the source gives them in different places.

Tests used:
[1] = target: T1, human M1 muscarinic receptor (Homo sapiens, UniProt P11229); design: method as in Watt et al. 2013 [10]; details: ref Watt et al. 2013 [10], cited from earlier work
T1 construct: purchased PerkinElmer Life and Analytical Sciences, Boston, MA
T1 sequence (P11229 1-460): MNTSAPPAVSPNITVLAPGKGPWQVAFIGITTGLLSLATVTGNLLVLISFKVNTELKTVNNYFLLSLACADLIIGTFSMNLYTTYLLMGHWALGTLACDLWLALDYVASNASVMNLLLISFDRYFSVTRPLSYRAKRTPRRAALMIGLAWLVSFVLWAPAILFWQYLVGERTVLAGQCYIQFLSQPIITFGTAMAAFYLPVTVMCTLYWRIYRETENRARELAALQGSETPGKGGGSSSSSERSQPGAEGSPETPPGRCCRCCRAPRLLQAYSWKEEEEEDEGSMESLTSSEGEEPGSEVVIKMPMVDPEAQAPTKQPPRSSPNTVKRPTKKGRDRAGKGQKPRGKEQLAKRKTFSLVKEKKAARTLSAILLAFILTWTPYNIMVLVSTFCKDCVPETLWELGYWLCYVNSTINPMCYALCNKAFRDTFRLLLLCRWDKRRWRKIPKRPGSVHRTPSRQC

[2] = target: T2, human M3 muscarinic receptor (Homo sapiens, UniProt P20309); design: method as in Watt et al. 2013 [10]; details: antagonist mode, ref Watt et al. 2013 [10], cited from earlier work
T2 construct: purchased PerkinElmer Life and Analytical Sciences, Boston, MA

[3] = target: T1, human M1 muscarinic receptor; experiment: GTP-γ-[35S] binding, antibody capture SPA (agonist and antagonist mode); assay type: biochemical
Description: (§1) The antibody capture scintillation proximity technique previously described by DeLapp et al was used in a 96-well plate to determine GTP-γ-[35S] binding. One hundred μl (20–40 fmol/well) of membrane preparation from CHO cells that stably express the human M1-M5 muscarinic receptors (PerkinElmer Life and Analytical Sciences, Boston, MA) were incubated with varying concentration of test compound (final concentrations from 50pM to 1μM) for 30 min. One μM final concentration of GDP was added to M2 and M4 receptor membranes before incubation. […] (500 pM final concentration; Perkin Elmer Life and Analytical Sciences) was added to each well followed by 30 min of incubation. […] An anti-Gαq/11 antibody was used for the M1-, M3-, and M5 membranes, whereas an anti-Gαi-3 antibody was used for the M2- and M4 membranes (Eli Lilly and Company, Indianapolis, IN). […] By use of a Wallac MicroBeta TriLux scintillation counter (PerkinElmer), the plates were centrifuged for 10 min at 700 × g and counted for 1 min per well. The incubations took place at room temperature in GTP-binding assay buffer (20 mM Hepes, 100 mm NaCl, 5 mM MgC12, pH 7.4). The data were analyzed by use of nonlinear regression for a sigmoidal concentration response curve (GraphPad Prism v. 4.0). Data were normalized to a full agonist response (100 μM oxotremorine-M). […] The antagonist percent inhibition data were normalized to data generated with an EC90 concentration of acetylcholine. The mean relative EC50, IC50, and %Emax, and pKi values were calculated as a mean of at least three independent experiments±SEM. In order to obtain relevant comparisons between subtypes, the experimental system is routinely calibrated with reference agonists (oxotremorine-M, pilocarpine, MCN-A343) to measure full and partial agonism as well as to ensure that the system is not under- or over-reporting functional efficacies. The radioligand binding assays have earlier been described.

[4] = target: T3, human M4 muscarinic receptor (Homo sapiens, UniProt P08173); experiment: as above; assay type: biochemical
T3 construct: purchased PerkinElmer Life and Analytical Sciences, Boston, MA
T3 sequence (P08173 1-479): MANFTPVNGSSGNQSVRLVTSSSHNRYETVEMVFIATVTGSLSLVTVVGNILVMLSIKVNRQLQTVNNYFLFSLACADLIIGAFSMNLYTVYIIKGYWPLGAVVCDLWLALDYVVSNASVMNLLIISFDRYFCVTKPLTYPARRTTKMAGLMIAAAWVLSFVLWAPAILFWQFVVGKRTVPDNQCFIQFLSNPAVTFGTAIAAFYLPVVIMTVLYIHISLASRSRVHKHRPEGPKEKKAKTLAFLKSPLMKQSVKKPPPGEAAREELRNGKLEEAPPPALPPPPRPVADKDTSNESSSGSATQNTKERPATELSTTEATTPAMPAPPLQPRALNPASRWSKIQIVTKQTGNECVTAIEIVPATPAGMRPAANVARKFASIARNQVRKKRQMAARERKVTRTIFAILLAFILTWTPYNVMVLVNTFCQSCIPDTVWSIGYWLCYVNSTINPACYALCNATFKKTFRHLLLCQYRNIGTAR
Description: as §1

[5] = target: T4, human M5 muscarinic receptor (Homo sapiens, UniProt P08912); experiment: as above; assay type: biochemical
T4 construct: purchased PerkinElmer Life and Analytical Sciences, Boston, MA
T4 sequence (P08912 1-532): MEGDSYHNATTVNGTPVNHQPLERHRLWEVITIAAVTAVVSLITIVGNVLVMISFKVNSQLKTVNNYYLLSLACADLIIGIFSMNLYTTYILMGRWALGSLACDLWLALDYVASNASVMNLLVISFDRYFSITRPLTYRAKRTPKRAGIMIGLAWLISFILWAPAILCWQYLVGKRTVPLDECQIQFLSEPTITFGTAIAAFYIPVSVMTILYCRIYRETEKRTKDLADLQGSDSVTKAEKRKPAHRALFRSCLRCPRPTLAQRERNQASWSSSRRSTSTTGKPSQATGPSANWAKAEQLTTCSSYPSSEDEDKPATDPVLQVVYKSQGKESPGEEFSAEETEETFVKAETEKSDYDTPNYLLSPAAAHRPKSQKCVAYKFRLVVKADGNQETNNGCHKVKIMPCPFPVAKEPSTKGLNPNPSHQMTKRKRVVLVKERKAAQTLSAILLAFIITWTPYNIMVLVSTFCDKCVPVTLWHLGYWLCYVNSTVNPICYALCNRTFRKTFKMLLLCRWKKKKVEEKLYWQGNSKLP
Description: as §1

[6] = antagonist mode, maximal inhibition of EC90 agonist response

T2 sequence (P20309 whole entry): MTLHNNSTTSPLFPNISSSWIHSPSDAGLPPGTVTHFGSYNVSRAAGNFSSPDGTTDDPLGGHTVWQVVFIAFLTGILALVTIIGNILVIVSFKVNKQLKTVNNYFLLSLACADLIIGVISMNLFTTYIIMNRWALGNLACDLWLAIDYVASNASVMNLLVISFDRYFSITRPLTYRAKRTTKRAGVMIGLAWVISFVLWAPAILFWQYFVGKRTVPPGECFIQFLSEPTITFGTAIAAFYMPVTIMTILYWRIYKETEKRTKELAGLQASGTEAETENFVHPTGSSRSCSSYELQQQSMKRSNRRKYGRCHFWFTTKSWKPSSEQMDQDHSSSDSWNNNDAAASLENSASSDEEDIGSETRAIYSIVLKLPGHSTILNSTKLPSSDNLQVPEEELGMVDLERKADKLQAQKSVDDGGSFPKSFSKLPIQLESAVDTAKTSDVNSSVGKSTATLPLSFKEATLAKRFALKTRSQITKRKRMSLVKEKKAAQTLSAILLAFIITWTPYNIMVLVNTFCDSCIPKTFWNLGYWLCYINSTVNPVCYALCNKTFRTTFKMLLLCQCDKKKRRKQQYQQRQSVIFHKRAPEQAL

In the case of `CCCCSc1nsnc1[C@H]1CN2CCC[C@H]1C2` [BuTAC, (5R,6R)-6-(3-butylthio-1,2,5-thiadiazol-4-yl)-1-azabicyclo[3.2.1]octane], the “Rel pEC50” value ([1]; agonist mode, negative log-transformed) is given as 9.22±9.80 M, the “% Emax” value ([1]; agonist mode) is given as 33.56±6.29% and the “Rel pIC50” value ([1]; antagonist mode, negative log-transformed) is given as 9.03±10.01 M. For the same compound, the “% Inhibition” value ([1]; antagonist mode) was 57.27±2.35%, the “Rel pIC50” value ([2]; negative log-transformed) was 8.55 ± 8.59 M and the “% Inhibition” value [2] was 100.00 ± 0.00%.

With `CCCSc1nsnc1[C@H]1CN2CCC[C@H]1C2` [PTAC, (5R,6R) 6-(3-propylthio-1,2,5-thiadiazol-4-yl)-1-azabicyclo-[3.2.1]-octane] the EC50 [3] was 0.372 nM, the IC50 [3] was 0.933 nM and the “% Inhibition” value [3, 6] was 54.3 ± 1.70%. It also gave an Emax ([3]; percentage of maximum 100 μM oxotremorine-M signal) of 38.1 ± 9.94%, an EC50 [4] of 1.48 nM and an Emax [4] of 19.4 ± 0.52%. For the same compound, the IC50 [4] was 24.5 nM, the “% Inhibition” value [4, 6] was 92.7 ± 7.49% and the EC50 [5] was 15.5 nM. The Emax [5] was 15.4 ± 2.73%, the IC50 ([5]; antagonist mode against EC90 of agonist, negative log-transformed, read-out: Rel pIC50 (converted)) was 107 nM and the “% Inhibition” value [5, 6] was 87.3 ± 7.07%.
